The record followed here is article PMC9998865, “The toxic natural product tutin causes epileptic seizures in mice by activating calcineurin” (Signal Transduction and Targeted Therapy, 2023).

Assay [1] concerns the target T1, calcineurin (CN) catalytic subunit A (CNA); serine/threonine-protein phosphatase 2B catalytic subunit alpha isoform (Homo sapiens, UniProt Q08209).
T1 construct: gene PPP3CA; human CNA/CNB (CNA: M1-N370, CNB: 16-170), His-tagged, E. coli; with calcineurin B (CNB)
The experiment in a line: microscale thermophoresis (MST); supported by HDX-MS, CETSA and in vitro activation of CN. In kind it is binding. (In MST a laser heats a spot of the sample, and binding alters the fluorescence response.)

For assay [2], the target named is T2, calcineurin (CN) catalytic subunit A (CNA), CN-R254K (Homo sapiens, UniProt Q08209, R254K).
T2 construct: gene PPP3CA; human CNA/CNB (CNA: M1-N370, CNB: 16-170); with calcineurin B (CNB)
The experiment in a line: microscale thermophoresis (MST). In kind it is binding.

With `C=C(C)[C@@H]1[C@H]2OC(=O)[C@@H]1[C@]1(O)[C@H]3O[C@H]3[C@]3(CO3)[C@]1(C)[C@@H]2O` [tutin], the Kd in assay [1] is 0.28 ± 0.27 µM; in assay [2] it was 7.64 ± 4.48 µM.

By Kd is commonly meant the free concentration of one partner at which half of the binding sites on the other are occupied at equilibrium, for simple one-to-one binding.
